# Test results: patent publication US10028956B2, “Methods of treating various cancers using an AXL/cMET inhibitor in combination with other agents” (Ignyta, Inc., priority 2013, dated 2018)
# Tests used:
# AXL = target: T1, AXL (Homo sapiens, UniProt P30530); experiment: Dissociation from AXL, LanthaScreen Eu-kinase binding assay
# T1 sequence (P30530 26-894): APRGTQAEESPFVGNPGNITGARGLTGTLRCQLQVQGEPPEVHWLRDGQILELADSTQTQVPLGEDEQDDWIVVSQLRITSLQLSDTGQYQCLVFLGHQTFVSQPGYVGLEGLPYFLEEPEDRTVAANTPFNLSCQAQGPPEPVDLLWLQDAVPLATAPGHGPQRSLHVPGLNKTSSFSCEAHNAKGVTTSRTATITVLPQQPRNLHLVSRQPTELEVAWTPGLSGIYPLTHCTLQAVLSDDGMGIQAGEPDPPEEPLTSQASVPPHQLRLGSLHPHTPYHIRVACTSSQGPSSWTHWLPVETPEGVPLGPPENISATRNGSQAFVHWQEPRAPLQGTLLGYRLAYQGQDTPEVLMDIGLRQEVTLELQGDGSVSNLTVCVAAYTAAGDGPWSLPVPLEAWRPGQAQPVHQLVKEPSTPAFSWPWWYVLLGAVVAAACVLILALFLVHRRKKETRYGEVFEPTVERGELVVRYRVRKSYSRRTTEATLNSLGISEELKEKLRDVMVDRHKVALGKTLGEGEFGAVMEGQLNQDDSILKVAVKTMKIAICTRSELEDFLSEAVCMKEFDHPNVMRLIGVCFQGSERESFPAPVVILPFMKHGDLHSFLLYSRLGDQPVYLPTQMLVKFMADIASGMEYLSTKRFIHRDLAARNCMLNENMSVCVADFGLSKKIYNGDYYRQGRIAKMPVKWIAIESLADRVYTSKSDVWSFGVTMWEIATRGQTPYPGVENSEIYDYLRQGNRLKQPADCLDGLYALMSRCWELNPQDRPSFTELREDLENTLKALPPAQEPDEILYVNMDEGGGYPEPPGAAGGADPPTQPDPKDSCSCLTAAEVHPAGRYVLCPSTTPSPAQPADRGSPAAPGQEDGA
# Protocol: Assay buffer was prepared as for association, and used for all dilutions. A 5-μL aliquot of 80 nM LanthaScreen Eu-anti-GST antibody:20 nM GST-tagged enzyme mix was added to the Greiner low volume white 384-well plate, with antibody only added to control wells. Compound (100 nL) in DMSO was added by pintool at 2000-fold over the final assay concentration. DMSO was added to no inhibitor control wells. After a one-hour incubation at ambient temperature to allow formation of the enzyme-inhibitor complex, 2 μL of the reaction mix was transferred to a 384 Optiplate (PerkinElmer) and 78 μL of kinase tracer 236 was added. The final tracer concentration was 100 nM for AXL and 200 nM for c-Met. Readings were immediately initiated and total of 60 time points were taken at 2-min intervals, at 25° C. or 37° C. The background subtracted ratio was normalized to the no inhibitor control to calculate the % tracer bound, which was plotted with respect to time. The data was fitted to the one phase association model in GraphPad Prism (La Jolla Calif.).
# [1] = system: GTL-16 gastric carcinoma xenografts; experiment: Anti-tumor efficacy in GTL-16 gastric carcinoma xenografts; assay type: in vivo, mice; conditions: 10 and 30 mg/kg oral qd
# Text: The human gastric cancer cell line, GTL-16 was purchased from ATCC (American Tissue Culture Collection, Manassas, Va.) and cultured in DMEM medium with 10% fetal bovine serum (FBS, Cat# SH3007003, Hyclone Laboratory Inc, Logan, Utah). Female Nu/Nu mice (6-8 weeks, Charles River Laboratory, Wilmington, Mass.) were maintained 5/cage in microisolator units on a standard laboratory diet (Teklad Labchow, Harlan Teklad, Madison, Wis.). Animals were housed under humidity- and temperature-controlled conditions and the light/dark cycle was set at 12-hour intervals. Mice were quarantined at least 1 week prior to experimental manipulation. […] The mice were then monitored daily. […] The length (L) and width (W) of each tumor was measured with a vernier caliper and the mouse body weight was determined every 2-3 days. The tumor volumes were then calculated with the formula of 0.5236*L*W*(L+W)/2. […] Plasma and tumor samples were obtained at 2 hours post final dose at each dose level, and the compound levels in plasma and tumor lysates were measured by LC-MS/MS. The TGI values were calculated at the end of study by comparing the tumor volumes (TV) of each CEP-40783-treatment group with those of vehicle-treated group with the following formula: 1-(the last day TV of compound-treated group/the last day TV of vehicle-treated group).
smiles,measurement,setting,value
"COc1cc2nccc(Oc3ccc(NC(=O)c4cn(C(C)C)c(=O)n(-c5ccc(F)cc5)c4=O)cc3F)c2cc1OC [CEP-40783, 3-(4-Fluorophenyl)-1-isopropyl-2,4-dioxo-1,2,3,4-tetrahydropyrimidine-5-carboxylic acid [4-(6,7-dimethoxyquinolin-4-yloxy)-3-fluorophenyl]-amide]",off-rate from AXL,AXL; 25° C.,very slow
same,dissociation rate from AXL at higher temperature,AXL; 37° C. versus 25° C.,slightly enhanced
same,anti-tumor efficacy (tumor volume),[1],tumor stasis and regressions
